What was measured:
Assay type in all cases: cell-based
[1] = system: DU145 cells; experiment: Wound healing (scratch) assay; settings: 1 μM for 18 h prior to wounding; untreated control closed by 36 h
Protocol: DU145 cells were seeded in 6-well cell culture plates with Dulbecco's modified Eagle's medium/high glucose containing 10% FBS. After the cells reached 100% confluence, the monolayer was scratched using a […] pipette tip and washed once with PBS, to remove non-adherent cells. […] After drug incubation and wound induction, the medium was replaced with fresh drug-free medium and cells were observed under the microscope at the denoted time points.

[2] = system: DU145 cells; experiment: SRB growth inhibition and combination index with cisplatin, DU145
Protocol: The affected fractions were calculated from the SRB or MTT assay absorbance values and were registered to derive the respective CI values and isobolograms. A CI value of less than 1 (one) indicates synergy.
(§1) The SRB assay was used to assess cell growth inhibition by IE-8 alone and in combination with cisplatin. […] For combination studies drug treatments were sequential with IE-8 applied first followed by cisplatin for 1 h. […] Absorbance was read at 540 nm and results were normalized to untreated controls. For analysis of GC50 values and statistical significance, non-linear regression analysis with a comparison of fits was performed with the GraphPad Prism 6.0 software.
as §1, with “Drug Combination studies. Sulforhodamine B (SRB) Cell Growth Inhibition Assay. The” for “The”, “8 h” for “IE-8”

[3] = system: DU145 cells; experiment: Live cell microscopy; settings: DU145, increasing concentration over 24 h
Protocol: 5×10^4 DU145 cells were seeded in 8-well chamber slides (Ibidi, Martinsried, Germany). After 24 h, cells were treated with the denoted concentration (μM) IE-8 and intracellular drug accumulation was imaged at 3 h intervals on a live cell microscope (Visitron Systems, Puchheim, Germany) using a 40× oil immersion DIC objective and VisiView® software.
LEDs were used for widefield DIC and fluorescence (436/20 nm excitation and 480/40 nm bandpass filter for (CFP) fluorescence illumination (Visitron Systems). Images were taken with a sCMOS 4.2MPxl digital camera.

[4] = system: DU145 cells; experiment: Colony formation assay for radiosensitization
Protocol: The X-Ray radiation facility provided an AGO HS MP-1 X-ray machine with a Varian ND1-321 tube used to produce X rays at a dose rate of 1 Gy/min.
Stock cultures were trypsinised and 2.5×10^4 cells were seeded into 6-well plates and incubated at 37° C. for 24-48 hours. When cells reached […] confluency, they were treated with IE-8 (0, 0.8, 1, and 1.2 μM) for 18 hours. After drug treatment, cells were harvested by trypsinisation and re-seeded. […] Plates were then incubated for 14 days at 37° C. with 5% CO2. After this incubation, plates were washed with tap water and fixed. Colonies were stained for 30 minutes at room temperature with 1% (w/v) crystal violet (Sigma-Aldrich) in 10% ethanol, and subsequently dried overnight at room temperature. Colonies consisting of at least 50 cells were counted for each treatment. The number of colonies in unirradiated wells was used to determine the plating efficiency (number of colonies/number of cells seeded). The following formula was used to calculate survival fraction: […]

[5] = system: HCT116-oxaliplatin resistant and A2780-cisplatin resistant cells; experiment: 2D monolayer cytotoxicity in platinum-resistant cells; settings: compared with HO-3867, atovaquone, curcumin and stattic
Protocol: MIT assay. Individual drug treatments and combinations were carried out as with the SRB assay. The MTT assay was carried out as previously (see Cytotoxicity studies sections) with the difference that it was completed in 96 h.

Molecule: COc1cc(/C=C2\CN(c3ccccc3)C/C(=C\c3cc(OC)c(OC)c(OC)c3)C2=O)cc(OC)c1OC [IE-8, 3,5-Di(3,4,5-trimethoxybenzylidene)-1-phenylpiperidin-4-one]
- time for which full wound closure was prevented [1]: up to 60 h
- combination index (CI) with cisplatin ([2]; 5 μM IE-8 1 h then cisplatin 1 h, non-fixed ratio): below 1
- cytoplasmic vacuolisation [3]: induced cytoplasmic vacuolisation
- colony formation following irradiation ([4]; 18 h pretreatment): dose-dependent decrease in colony formation
- Survival fraction ([4]; IE-8 0.8 μM 18 h pretreatment, 0 Gy): 1.000
- Survival fraction ([4]; IE-8 0.8 μM 18 h pretreatment, 2 Gy): 0.451
- Survival fraction ([4]; IE-8 0.8 μM 18 h pretreatment, 4 Gy): 0.147
- Survival fraction ([4]; IE-8 0.8 μM 18 h pretreatment, 6 Gy): 0.047
- Survival fraction ([4]; IE-8 0.8 μM 18 h pretreatment, 8 Gy): 0.013
- Survival fraction ([4]; IE-8 1 μM 18 h pretreatment, 0 Gy): 1.000
- Survival fraction ([4]; IE-8 1 μM 18 h pretreatment, 2 Gy): 0.440
- Survival fraction ([4]; IE-8 1 μM 18 h pretreatment, 4 Gy): 0.134
- Survival fraction ([4]; IE-8 1 μM 18 h pretreatment, 6 Gy): 0.026
- Survival fraction ([4]; IE-8 1 μM 18 h pretreatment, 8 Gy): 0.006
- Survival fraction ([4]; IE-8 1.2 μM 18 h pretreatment, 0 Gy): 1.000
- Survival fraction ([4]; IE-8 1.2 μM 18 h pretreatment, 2 Gy): 0.349
- Survival fraction ([4]; IE-8 1.2 μM 18 h pretreatment, 4 Gy): 0.077
- Survival fraction ([4]; IE-8 1.2 μM 18 h pretreatment, 6 Gy): 0.014
- Survival fraction ([4]; IE-8 1.2 μM 18 h pretreatment, 8 Gy): 0.002

Molecule: 3,5-Di(3,4,5-trimethoxybenzylidene)-1-phenylpiperidin-4-one [IE-8]
- time for which full wound closure was prevented [1]: up to 60 h
- combination index (CI) with cisplatin ([2]; IE-8 18 h then cisplatin 1 h, fixed ratio 1:50): > 1
- cytotoxicity relative to other Stat3 inhibitors [5]: more cytotoxic than the other tested inhibitors

Reference: patent US11964943B2, “3,5-diarylidenyl-n-substituted-piperid-4-one-derived inhibitors of Stat3 pathway activity and uses thereof” (priority 2017, dated 2024)
